Read-outs that look alike come from different tables or passages of the source. No end group written: not given here.
Columns and labels:
[1] = tested on: S. pseudintermedius MRSP 45; test: microbe, parasite or virus in culture; type: cell-based, Staphylococcus pseudintermedius; conditions: Staphylococcus pseudintermedius, MRSP45, MRSP 45, 24 h, read-out: MIC, single component
Experimental: (§1) Antimicrobial activity was measured using the AAMP assay (Wiegand et al., 2008, Nat. Protoc., Vol. 3(2), p 163-175).
(§2) Synergy testing was done with a microtiter plate checkerboard assay as previously described (Orhan et al., 2005, J. Clin. Microbiol., Vol. 43(1), p 140-143). Briefly, equal amounts of antimicrobial A were applied on microtiter plate 1 in wells A1-H1 and then diluted two-fold to wells 2-12. Similarly, equal amounts of antimicrobial B were applied on microtiter plate 2 in wells A1-A12 and diluted two-fold in wells B-H. Volumes of 50 μl of antimicrobial A from each well of microtiter plate 1 were transferred into microtiter plate 3, except for wells H1-H12. Similarly, the same volumes were transferred from microtiter plate 2 into plate 3, except for wells A1-A8. A 100 μl volume of 25 times diluted ON bacterial culture of MRSA was transferred into each well of plate 3. A 50 μl volume of pure broth was added into each well in lines H1-H12 and A1-A8 which were used to estimate MIC values of pure substances (blank).
(§3) Antimicrobial activity was measured using the AAMP assay as described in Example 2.
(§4) Synergy testing was performed as in Example 2.

[2] = tested on: S. aureus biofilms; test: BOAT followed by CFU counting; type: cell-based, Staphylococcus aureus; conditions: 5 mg/ml garvicin KS, 0.1 mg/ml micrococcin P1, 10 mg/ml penicillin G
Experimental: The procedure for the BOAT assay was repeated as described above except that instead of adding the TTC solution, the antimicrobial-challenged cells were resuspended in TSB and then serially diluted in TSB buffer. Serial dilutions of the bacterial cells were than plated on BHI agar plates and incubated at 37° C. for 24 h. The results were then assessed by direct counting of the developed colonies and the colony forming unit (CFU) was determined.

[3] = tested on: S. aureus ATTC 33591 biofilm; test: LIVE/DEAD biofilm staining, confocal microscopy; type: cell-based, Staphylococcus aureus; conditions: data not shown
[4] = tested on: S. haemoliticus NVH 409; test: organism not typed; type: cell-based
Experimental: as §1, §2, §3, §4

[5] = tested on: E.faecalis 3689; test: microbe, parasite or virus in culture; type: cell-based, Enterococcus faecalis
Experimental: as §1, §2, §3, §4

[6] = tested on: S. haemolyticus strains 4068-4073; test: microbe, parasite or virus in culture; type: cell-based; conditions: 5 hour incubation
Experimental: Bacteriocins and antimicrobial assays. K1-EJ and garvicin KS peptides (Gak-A, -B and -C) were synthesized by Pepmic Co., Ltd, China, with >95% purity. These bacteriocins were all solubilized in 0.1% (vol/vol) trifluoracetic acid (TFA; Sigma-Aldrich). Micrococcin P1 was purchased from Cayman Chemical, Michigan, USA with 95% purity and solubilized in a 50% (v/v) mixture of isopropanol (Merck) […] (Sigma-Aldrich) at a stock concentration of 1 mg/ml. Cell growth inhibition assays and antimicrobial synergy determination was performed in line with Example 1.
To investigate whether there was synergy between the three bacteriocins (K1-EJ, GarKS and MP1), a checkboard antimicrobial assay was performed. The selected strains were treated for 5, 24 and 48 h with a range of concentrations of K1-EJ, GarKS and MP1 alone or in different combinations. […] Double combinatorial treatments (GarKS/MP1; K1-EJ/GarKS; K1-EJ/MP1) increased the antimicrobial activity of the bacteriocins. […] This was particularly evident at the 24 and 48 h time-points.

[7] = tested on: S. aureus biofilms (six strains); test: BOAT, summary over strains; type: cell-based, Staphylococcus aureus
Experimental: The BOAT assay was performed as described previously (Gronseth et al., 2017, Int. J. Pediatr. Otorhinolaryngol., Vol. 103, p 58-64) with some modifications. The serial dilutions of the antimicrobials were prepared in challenge plates as follows: 175 μl of TSB were transferred in each row of a 96-well microtiter plate, except for the first row, according to the number of microbial strains to treat. In the first row of the plate, the antimicrobials were diluted to their respective working concentrations in a final volume of 350 μl of TSB. From the first row, 175 μl of the antimicrobial dilutions were then transferred to the second row of the plate and further serially diluted to the bottom of the plate. The same procedure was followed to prepare the controls, except that instead of the antimicrobials an equivalent volume of the respective vehicles were used. […] The results were then assessed by monitoring the development (or not) of red formazan (red colour), denoting the retention of metabolic activity by bacterial cells (Moussa et al., 2013, J. Mycol., Vol. 2013; Perez et al., 2010, Lett. Appl. Microbiol., Vol. 51, p 331-337). […] The amount of extracted dye, reflecting the degree of bacterial cell metabolic activity, was then quantified by spectrophotometric readings at 492 nm.

[8] = tested on: lactococci, listeria and enterococci; test: MIC against other indicators (data not shown); type: cell-based
Experimental: as §1

CC1(C)S[C@@H]2[C@H](NC(=O)Cc3ccccc3)C(=O)N2[C@H]1C(=O)O [Penicillin G]
MIC ([1]; Table 9): > 125 µg/mL
cell viability, LogCFU after BOAT [2]: reduction in the viability of the non-MRSA strains
LIVE/DEAD staining pattern [3]: increased resistance

MKFKFNPTGTIVKKLTQYEINWYKQQYGRYPWERPVA [Hybrid K1-EJ]
MIC, single antimicrobial [4]: >25 µg/mL
MIC of MP1 in comb. with the labelled antimicrobial ([4]; S. haemoliticus NVH 409): 0.08 µg/mL
MIC of the labelled antimicrobial in comb. with MP1 ([4]; S. haemoliticus NVH 409): 3 µg/mL
MIC, single antimicrobial [5]; 3689: >25 µg/mL
MIC of MP1 in comb. with the labelled antimicrobial ([5]; E.faecalis 3689): 3 µg/mL
MIC of the labelled antimicrobial in comb. with MP1 ([5]; E.faecalis 3689): 1.5 µg/mL
MIC50 values over strains [6]: 0.78 µg/mL

C/C=C(\NC(=O)c1csc(-c2csc(-c3ccc4c(n3)-c3csc(n3)[C@H]([C@@H](C)O)NC(=O)c3csc(n3)[C@H](C(C)C)NC(=O)c3csc(n3)/C(=C/C)NC(=O)[C@H]([C@@H](C)O)NC(=O)c3csc-4n3)n2)n1)C(=O)NC[C@@H](C)O [MP1, micrococcin P1]
MIC ([4]; S. haemoliticus NVH 409, read-out: MIC, single antimicrobial): 1.25 µg/mL
MIC ([5]; Enterococcus faecalis, E.faecalis 3689, read-out: MIC, single antimicrobial): > 45 µg/mL
MIC ([1]; Table 8): > 2.5 µg/mL
effect on biofilm-associated metabolic activity (BOAT) ([7]; six strains, up to 5 mg/ml garvicin KS, 0.1 mg/ml micrococcin P1): ineffective against all the strains
increase in resistance compared to the planktonic state ([7]; some of the biofilm producers): over 160 fold
MIC values, range [8]: 1 to 10 µg/mL
MIC50 ([6]; Staphylococcus haemolyticus, STRAINS40684073, read-out: MIC50 values over strains): 0.02 to 0.15 µg/mL

B1: Garvicin KS: three-peptide leaderless bacteriocin (GarA, GarB, GarC; SEQ ID NO:6-8), peptides synthesized (peptide, listed as Lactococcus garvieae)
chain 1: MGAIIKAGAKIVGKGVLGGGASWLGWNVGEKIWK
chain 2: MGAIIKAGAKIIGKGLLGGAAGGATYGGLKKIFG
chain 3: MGAIIKAGAKIVGKGALTGGGVWLAEKLFGGK
cell viability, LogCFU after BOAT [2]: most dramatic reduction in LogCFU levels for all the strains
LIVE/DEAD staining pattern [3]: increased resistance
MIC values, range [8]: 1 to 20 µg/mL

Source: patent publication US20240041976A1, “COMPOSITION AND USE” (priority 2020, published 2024)
